Our source for the IC50 values is ChEMBL document CHEMBL1955784, “Novel 5-substituted 1H-tetrazoles as cyclooxygenase-2 (COX-2) inhibitors” (Bioorg Med Chem Lett, 2012).

What is called IC50 is the midpoint of a concentration-inhibition curve.

Test [1] addresses T1, Prostaglandin G/H synthase 1 (Ovis aries, UniProt P05979).
T1 sequence (P05979 whole entry): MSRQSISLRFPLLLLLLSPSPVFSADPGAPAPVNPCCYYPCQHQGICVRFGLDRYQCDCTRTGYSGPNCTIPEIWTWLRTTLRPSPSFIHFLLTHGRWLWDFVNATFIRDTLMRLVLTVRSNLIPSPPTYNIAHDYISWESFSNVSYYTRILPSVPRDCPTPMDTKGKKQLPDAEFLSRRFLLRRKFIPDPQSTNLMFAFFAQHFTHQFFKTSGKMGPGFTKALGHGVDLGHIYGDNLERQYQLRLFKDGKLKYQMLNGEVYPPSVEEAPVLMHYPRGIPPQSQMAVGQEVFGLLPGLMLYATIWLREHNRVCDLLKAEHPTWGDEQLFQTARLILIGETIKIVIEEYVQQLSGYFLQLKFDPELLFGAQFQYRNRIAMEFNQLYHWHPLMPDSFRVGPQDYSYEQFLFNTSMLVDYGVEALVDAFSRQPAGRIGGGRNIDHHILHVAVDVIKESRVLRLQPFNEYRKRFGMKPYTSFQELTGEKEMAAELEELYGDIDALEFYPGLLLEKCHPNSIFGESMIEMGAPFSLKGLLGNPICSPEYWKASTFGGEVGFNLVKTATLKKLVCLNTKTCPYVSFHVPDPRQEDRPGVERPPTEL
The test is described as follows: Competitive inhibition of ovine COX1 by enzyme immunoassay.

Test [2] concerns the target T2, Prostaglandin G/H synthase 2 (Homo sapiens, UniProt P35354).
T2 sequence (P35354 whole entry): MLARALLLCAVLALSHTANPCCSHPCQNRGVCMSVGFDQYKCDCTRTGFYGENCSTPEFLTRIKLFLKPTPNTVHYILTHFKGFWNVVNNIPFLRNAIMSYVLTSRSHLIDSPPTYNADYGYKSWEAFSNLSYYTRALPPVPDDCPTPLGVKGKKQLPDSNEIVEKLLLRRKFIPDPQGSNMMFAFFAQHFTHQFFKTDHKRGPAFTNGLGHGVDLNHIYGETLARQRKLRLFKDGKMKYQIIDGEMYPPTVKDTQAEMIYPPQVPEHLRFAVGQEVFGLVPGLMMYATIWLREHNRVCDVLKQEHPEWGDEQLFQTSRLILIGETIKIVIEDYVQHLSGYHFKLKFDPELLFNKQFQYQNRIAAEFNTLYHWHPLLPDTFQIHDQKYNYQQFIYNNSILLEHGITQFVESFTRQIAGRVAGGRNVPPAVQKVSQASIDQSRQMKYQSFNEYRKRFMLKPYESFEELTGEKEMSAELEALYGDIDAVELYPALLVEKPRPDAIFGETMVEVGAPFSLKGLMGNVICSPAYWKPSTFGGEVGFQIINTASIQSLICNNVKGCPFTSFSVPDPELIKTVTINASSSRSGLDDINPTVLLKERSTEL
The test is described as follows: Competitive inhibition of human recombinant COX2 by enzyme immunoassay.

Regarding `CS(=O)(=O)c1ccc(-n2nnnc2-c2ccc([N+](=O)[O-])cc2)cc1`, the IC50 in test [1] is over 100 µM; in test [2] it was 69 µM.
Consider `NS(=O)(=O)c1ccc(-n2nnnc2-c2ccc(Cl)cc2)cc1`, for which the IC50 in test [1] was over 100 µM; in test [2], 62 µM.
`Cc1ccc(-c2nnnn2-c2ccc(S(N)(=O)=O)cc2)cc1`: the IC50 in test [1] and in test [2] was over 100 µM throughout.
As to `CS(=O)(=O)c1ccc(-n2nnnc2-c2ccc(Cl)cc2)cc1`, the figures for the 50% inhibitory concentration (IC50) in test [1] and in test [2] were over 100 µM and 32 µM, respectively.
On the same counts, the results for `CS(=O)(=O)c1ccc(-n2nnnc2-c2ccc(F)cc2)cc1` are over 100 µM and 15 µM.
